# Article PMC9510668 (Frontiers in Pharmacology, 2022)
# Like-named read-outs stand apart in the source and are kept apart here.
# Tests used:
# [1] = Physicochemical parameters (literature / model input); settings: mean value of literature values, used in the model
# BCRP1 = BCRP1 efflux transport; type: in vitro ADME; settings: calculated from literature data, PAZ 5 μM, 60-120 min; ref Minocha et al., 2012
# [2] = cited from earlier work
# OCT2 = tested on: OCT2; set-up: method as in Sauzay et al., 2016; settings: ref Sauzay et al., 2016; cited from earlier work
# MATE1 = tested on: MATE1; set-up: method as in Sauzay et al., 2016; settings: ref Sauzay et al., 2016; cited from earlier work
# [3] = ref Food and Drug Administration, 2009, cited from earlier work
# [4] = ref Fink, 2020; cited from earlier work
# CYP3D6 = settings: ref Food and Drug Administration, 2009; Yamada et al., 2020; cited from earlier work
# CYP2B6 = settings: ref Food and Drug Administration, 2009; Yamada et al., 2020; cited from earlier work
# CYP3A4 = settings: ref Food and Drug Administration, 2009; Yamada et al., 2020; cited from earlier work
# [5] = 50 mg OD for 21 consecutive days, Day 1, ref Hurwitz et al., 2009
# [6] = 50 mg OD for 21 consecutive days, Day 22, ref Hurwitz et al., 2009
# [7] = 100 mg OD for 21 consecutive days, Day 1, ref Hurwitz et al., 2009
# [8] = 100 mg OD for 21 consecutive days, Day 22, ref Hurwitz et al., 2009
# [9] = 200 mg OD for 21 consecutive days, Day 1, ref Hurwitz et al., 2009
# [10] = 200 mg OD for 21 consecutive days, Day 22, ref Hurwitz et al., 2009
# [11] = 300 mg twice daily for 21 consecutive days, Day 1, ref Hurwitz et al., 2009
# [12] = 300 mg twice daily for 21 consecutive days, Day 22, ref Hurwitz et al., 2009
# [13] = 400 mg OD for 21 consecutive days, Day 1, ref Hurwitz et al., 2009
# [14] = 400 mg OD for 21 consecutive days, Day 22, ref Hurwitz et al., 2009
# [15] = 400 mg oral suspension, ref Heath et al., 2012
# [16] = 400 mg tablet, arithmetic mean (range), ref Deng et al., 2013
# [17] = 400 mg twice daily for 21 consecutive days, Day 1, ref Hurwitz et al., 2009
# [18] = 400 mg twice daily for 21 consecutive days, Day 22, ref Hurwitz et al., 2009
# [19] = 400 mg whole tablet, ref Heath et al., 2012
# [20] = 600 mg OD for 21 consecutive days, Day 1, ref Hurwitz et al., 2009
# [21] = 600 mg OD for 21 consecutive days, Day 22, ref Hurwitz et al., 2009
# [22] = 800 mg OD for 21 consecutive days, Day 1, ref Hurwitz et al., 2009
# [23] = 800 mg OD for 21 consecutive days, Day 22, ref Hurwitz et al., 2009
# [24] = 1000 mg OD for 21 consecutive days, Day 1, ref Hurwitz et al., 2009
# [25] = 1000 mg OD for 21 consecutive days, Day 22, ref Hurwitz et al., 2009
# [26] = 1400 mg OD for 21 consecutive days, Day 1, ref Hurwitz et al., 2009
# [27] = 1400 mg OD for 21 consecutive days, Day 22, ref Hurwitz et al., 2009
# [28] = 2000 mg OD for 21 consecutive days, Day 1, ref Hurwitz et al., 2009
# [29] = 2000 mg OD for 21 consecutive days, Day 22, ref Hurwitz et al., 2009
compound,measurement,setting,value
"Cc1ccc(Nc2nccc(N(C)c3ccc4c(C)n(C)nc4c3)n2)cc1S(N)(=O)=O [PAZ, pazopanib]",LogP,[1],3.49
same,BCRP1 Vmax,BCRP1,2.5 pmol/min
same,"AUC0-24, Observation",[2]; [5],51.8 µg·h/mL
same,"Cmax, Observation",[2]; [5],3.3 µg/mL
same,"Ctrough, Observation",[2]; [5],1500 ng/mL
same,"Tmax, Observation",[2]; [5],3.0 h
same,"AUC504-528, Observation",[2]; [6],157.7 µg·h/mL
same,"Cmax, Observation",[2]; [6],8.4 µg/mL
same,"Ctrough, Observation",[2]; [6],5100 ng/mL
same,"Tmax, Observation",[2]; [6],3.0 h
same,"AUC0-24, Observation",[2]; [7],96.9 µg·h/mL
same,"Cmax, Observation",[2]; [7],6.5 µg/mL
same,"Ctrough, Observation",[2]; [7],2800 ng/mL
same,"Tmax, Observation",[2]; [7],4.0 h
same,"AUC504-528, Observation",[2]; [8],160.7 µg·h/mL
same,"Cmax, Observation",[2]; [8],11.0 µg/mL
same,"Ctrough, Observation",[2]; [8],4900 ng/mL
same,"Tmax, Observation",[2]; [8],8.0 h
same,"AUC0-24, Observation",[2]; [9],104.5 µg·h/mL
same,"Cmax, Observation",[2]; [9],7.5 µg/mL
same,"Ctrough, Observation",[2]; [9],2900 ng/mL
same,"Tmax, Observation",[2]; [9],3.0 h
same,"AUC504-528, Observation",[2]; [10],384.8 µg·h/mL
same,"Cmax, Observation",[2]; [10],23.7 µg/mL
same,"Ctrough, Observation",[2]; [10],12400 ng/mL
same,"Tmax, Observation",[2]; [10],2.0 h
same,"AUC0-24, Observation",[2]; [11],120.1 µg·h/mL
same,"Cmax, Observation",[2]; [11],8.4 µg/mL
same,"Ctrough, Observation",[2]; [11],4100 ng/mL
same,"Tmax, Observation",[2]; [11],4.0 h
same,"Cmax, Observation",[2]; [12],36.7 µg/mL
same,"Ctrough, Observation",[2]; [12],29500 ng/mL
same,"Tmax, Observation",[2]; [12],4.0 h
same,"AUC0-24, Observation",[2]; [13],142.8 µg·h/mL
same,"Cmax, Observation",[2]; [13],10.3 µg/mL
same,"Ctrough, Observation",[2]; [13],3900 ng/mL
same,"Tmax, Observation",[2]; [13],4.0 h
same,"AUC504-528, Observation",[2]; [14],447.1 µg·h/mL
same,"Cmax, Observation",[2]; [14],21.8 µg/mL
same,"Ctrough, Observation",[2]; [14],10400 ng/mL
same,"Tmax, Observation",[2]; [14],3.0 h
same,"AUC0-72, Observation",[2]; [15],471.1 (NC) μg h mL^−1
same,"C24, Observation",[2]; [15],7.8 (NC) μg mL^−1
same,"Cmax, Observation",[2]; [15],12.7 (NC) μg mL^−1
same,"Tmax, Observation",[2]; [15],2.7 (NC) h
same,"AUC0-72, Observation",[2]; [16],335.2 (259–582) μg h mL^−1
same,"Cmax, Observation",[2]; [16],10.8 (7.3–12.5) μg mL^−1
same,"Tmax, Observation",[2]; [16],8.0 (4.0–10.0) h
same,"C24, Observation","[2]; 400 mg tablet, ref Deng et al., 2013",5.8 (NC) μg mL^−1
same,"AUC0-24, Observation",[2]; [17],365.4 µg·h/mL
same,"Cmax, Observation",[2]; [17],6.5 µg/mL
same,"Ctrough, Observation",[2]; [17],3300 ng/mL
same,"Tmax, Observation",[2]; [17],3.0 h
same,"Cmax, Observation",[2]; [18],36.1 µg/mL
same,"Ctrough, Observation",[2]; [18],28100 ng/mL
same,"Tmax, Observation",[2]; [18],3.1 h
same,"AUC0-72, Observation",[2]; [19],410.3 (NC) μg h mL^−1
same,"C24, Observation",[2]; [19],7.6 (NC) μg mL^−1
same,"Cmax, Observation",[2]; [19],12.4 (NC) μg mL^−1
same,"Tmax, Observation",[2]; [19],3.8 h
same,"AUC0-24, Observation",[2]; [20],157.6 µg·h/mL
same,"Cmax, Observation",[2]; [20],11.2 µg/mL
same,"Ctrough, Observation",[2]; [20],4700 ng/mL
same,"Tmax, Observation",[2]; [20],3.0 h
same,"AUC504-528, Observation",[2]; [21],333.7 µg·h/mL
same,"Cmax, Observation",[2]; [21],18.2 µg/mL
same,"Ctrough, Observation",[2]; [21],11000 ng/mL
same,"Tmax, Observation",[2]; [21],6.0 h
same,"AUC0-24, Observation",[2]; [22],275.1 µg·h/mL
same,"Cmax, Observation",[2]; [22],19.4 µg/mL
same,"Ctrough, Observation",[2]; [22],9400 ng/mL
same,"Tmax, Observation",[2]; [22],3.5 h
same,"AUC504-528, Observation",[2]; [23],743.3 µg·h/mL
same,"Cmax, Observation",[2]; [23],45.1 µg/mL
same,"Ctrough, Observation",[2]; [23],24000 ng/mL
same,"Tmax, Observation",[2]; [23],2.0 h
same,"AUC0-24, Observation",[2]; [24],400.0 µg·h/mL
same,"Cmax, Observation",[2]; [24],36.1 µg/mL
same,"Ctrough, Observation",[2]; [24],12200 ng/mL
same,"Tmax, Observation",[2]; [24],2.0 h
same,"AUC504-528, Observation",[2]; [25],796.1 µg·h/mL
same,"Cmax, Observation",[2]; [25],53.2 µg/mL
same,"Ctrough, Observation",[2]; [25],28800 ng/mL
same,"Tmax, Observation",[2]; [25],4.5 h
same,"AUC0-24, Observation",[2]; [26],291.6 µg·h/mL
same,"Cmax, Observation",[2]; [26],20.8 µg/mL
same,"Ctrough, Observation",[2]; [26],8200 ng/mL
same,"Tmax, Observation",[2]; [26],3.0 h
same,"AUC504-528, Observation",[2]; [27],536.2 µg·h/mL
same,"Cmax, Observation",[2]; [27],32.7 µg/mL
same,"Ctrough, Observation",[2]; [27],16600 ng/mL
same,"Tmax, Observation",[2]; [27],2.0 h
same,"AUC0-24, Observation",[2]; [28],681.2 µg·h/mL
same,"Cmax, Observation",[2]; [28],44.5 µg/mL
same,"Ctrough, Observation",[2]; [28],12200 ng/mL
same,"Tmax, Observation",[2]; [28],4.0 h
same,"AUC504-528, Observation",[2]; [29],860.3 µg·h/mL
same,"Cmax, Observation",[2]; [29],52.7 µg/mL
same,"Ctrough, Observation",[2]; [29],28800 ng/mL
same,"Tmax, Observation",[2]; [29],3.0 h
same,"Slope of AUC vs dose, clinically determined value","[2]; ref Food and Drug Administration, 2009",0.46
same,Ki,OCT2,3000 nM
same,Ki,MATE1,1700 nM
same,Incidence of high blood pressure,[3]; Ctrough above 32 μg/ml,~80%
same,Probability of ALT elevation,[3]; Ctrough above approximately 56 μg/ml,~20%
same,Cmax threshold of clinical exposure-toxicity,[3],less than 56 μg/ml
same,Ctrough needed for sufficient clinical response,[3],above 15 μg/ml
same,Ctrough threshold of clinical exposure-toxicity,[3],< 32000 ng/mL
same,Permeability,[4],highly permeable
same,Inhibitor of CYP3D6,CYP3D6,weak inhibitor
same,Inducer of CYP2B6,CYP2B6,moderate inducer
same,Inhibitor of CYP3A4,CYP3A4,weak inhibitor
